Data on one compound can be found in patent US4570006A, “Amidine compound, process for producing same and anti-complement agent comprising same” (Torii & Co. Ltd., priority 1981, dated 1986).

The target in one series is T1, Trypsin (Bos taurus, UniProt P00760).
T1 sequence (P00760 24-246): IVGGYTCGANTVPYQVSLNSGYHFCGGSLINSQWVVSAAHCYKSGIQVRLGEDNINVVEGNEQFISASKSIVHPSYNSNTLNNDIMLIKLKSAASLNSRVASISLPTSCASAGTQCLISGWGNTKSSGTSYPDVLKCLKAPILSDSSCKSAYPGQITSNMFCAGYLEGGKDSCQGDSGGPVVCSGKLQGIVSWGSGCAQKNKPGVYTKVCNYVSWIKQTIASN
Put plainly: Anti-trypsin activity (inhibition of TAME hydrolysis). It counts as biochemical. As to conditions: read-out: ID50, trypsin. Put shortly:
(§1)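 Inhibition of enzymatic TAME (tosylarginine methyl ester) hydrolysis, per Muramatsu et al. Values are ID50, the molar concentration of compound inhibiting 50% of each enzyme's TAME-hydrolysing activity.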

The target of the next series is Plasmin (Homo sapiens, UniProt P00747). Kind of series: Anti-plasmin activity (inhibition of TAME hydrolysis). It counts as biochemical. Particulars: read-out: ID50, plasmin. Summed up:
as §1

The test system of the next series is Kallikrein. Put plainly: Anti-kallikrein activity (inhibition of TAME hydrolysis). The series is classed as biochemical. Particulars: read-out: ID50, kallikrein. Put shortly: as §1
Another series concerns the target Thrombin (Homo sapiens, UniProt P00734). Kind of series: biochemical. Particulars: TAME hydrolysis; read-out: ID50, thrombin.
For another series, the target named is T2, Clr (Homo sapiens, UniProt P00736).
T2 sequence (P00736 464-705 limits assumed): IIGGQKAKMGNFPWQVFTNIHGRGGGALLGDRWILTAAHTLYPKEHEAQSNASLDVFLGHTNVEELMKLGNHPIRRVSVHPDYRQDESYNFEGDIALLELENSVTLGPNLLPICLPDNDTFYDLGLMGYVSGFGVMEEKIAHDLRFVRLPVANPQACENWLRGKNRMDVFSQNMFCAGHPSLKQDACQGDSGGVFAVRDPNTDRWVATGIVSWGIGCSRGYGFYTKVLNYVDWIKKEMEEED
T2 sequence (P00736 18-463 limits assumed): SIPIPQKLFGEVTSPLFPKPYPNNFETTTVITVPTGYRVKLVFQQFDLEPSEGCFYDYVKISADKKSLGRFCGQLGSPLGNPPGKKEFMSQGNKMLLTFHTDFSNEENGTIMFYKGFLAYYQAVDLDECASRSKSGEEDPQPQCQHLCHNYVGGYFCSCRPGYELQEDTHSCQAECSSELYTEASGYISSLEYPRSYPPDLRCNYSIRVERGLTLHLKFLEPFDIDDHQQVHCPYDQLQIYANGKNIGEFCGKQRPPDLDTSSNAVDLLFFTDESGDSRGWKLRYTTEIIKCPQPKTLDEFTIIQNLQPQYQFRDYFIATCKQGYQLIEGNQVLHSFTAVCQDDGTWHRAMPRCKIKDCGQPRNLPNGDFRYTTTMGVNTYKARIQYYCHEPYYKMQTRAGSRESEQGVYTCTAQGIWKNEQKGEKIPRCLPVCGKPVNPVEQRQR
Kind of series: Anti-Cl esterase activity, Clr (AAME hydrolysis). It counts as biochemical. As to conditions: hydrolysis of AAME; read-out: Anti-Cl activity, Clr (ID50). How it is done:
The anti-Cl esterase ([…]) activity was determined according to the method of Okamura et al. [K. Okamura, M. Muramatsu and B. Fujii, Biochem. Biophys.

The next series has as its target T3, Cls (Homo sapiens, UniProt P09871).
T3 sequence (P09871 438-688 limits assumed): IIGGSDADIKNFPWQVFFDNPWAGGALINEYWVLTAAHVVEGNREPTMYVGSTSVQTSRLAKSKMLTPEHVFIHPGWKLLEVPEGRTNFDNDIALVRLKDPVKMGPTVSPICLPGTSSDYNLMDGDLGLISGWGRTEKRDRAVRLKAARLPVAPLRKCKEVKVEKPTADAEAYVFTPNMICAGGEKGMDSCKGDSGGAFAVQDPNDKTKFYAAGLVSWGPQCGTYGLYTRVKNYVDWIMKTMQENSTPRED
T3 sequence (P09871 16-437 limits assumed): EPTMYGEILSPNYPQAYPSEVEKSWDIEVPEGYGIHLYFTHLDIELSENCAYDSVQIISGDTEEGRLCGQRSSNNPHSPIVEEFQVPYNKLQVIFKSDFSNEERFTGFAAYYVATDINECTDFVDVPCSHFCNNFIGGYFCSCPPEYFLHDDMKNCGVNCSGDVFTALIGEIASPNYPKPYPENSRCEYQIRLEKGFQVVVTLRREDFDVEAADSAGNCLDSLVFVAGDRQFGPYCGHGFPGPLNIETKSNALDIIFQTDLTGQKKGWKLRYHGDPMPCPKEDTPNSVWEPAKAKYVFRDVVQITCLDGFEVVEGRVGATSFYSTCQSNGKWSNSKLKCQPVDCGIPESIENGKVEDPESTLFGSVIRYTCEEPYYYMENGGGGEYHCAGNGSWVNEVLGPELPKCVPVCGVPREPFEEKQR
Put plainly: Anti-Cl esterase activity, Cls (ATEE hydrolysis). It counts as biochemical. Particulars: hydrolysis of ATEE; read-out: Anti-Cl activity, Cls (50% inhibition). The method, then: The anti-Cl esterase (Clr, Cls) activity was determined according to the method of Okamura et al. [K. Okamura, M. Muramatsu and B. Fujii, Biochem. Biophys. […] The figures in Table 2 have the following meanings:
Cls: Molar concentration of the test compound which inhibits 50% of the ability of Cls to hydrolyse ATEE (acetyltyrosin ethyl ester).

The test system of the next series is complement. Kind of series: Inhibition of complement mediated hemolysis. It counts as cell-based.
A further series relates to Masugi nephritis. Put plainly: Therapeutic experiment on Masugi's nephritis (protein content of urine). The series is classed as in vivo. Particulars: rats; for Percentage inhibition (decrease in protein content of urine): methanesulfonate, oral 100 mg/kg twice a day, eight days. From the text:
The protein content of the animal's urine is used as the parameter for the progress of Masugi nephritis. […] From the result, it may be said that the compound of this invention having a Cl-esterase inhibitory activity is useful as a remedy for the glomerulonephritis and is also useful as a remedy for autoimmune diseases inclusive of glomerulonephritis.
Experimental nephritis were induced in rats by intravenous injection of nephrotoxin prepared according to the method of Shibata et al. ["Experimental Immunoallergy.", p. 664 (1971), Bunkodo, Tokyo]. Each member of the medicine administered group had been orally administered with methanesulfonate of Compound No. 69 at a dose rate of 100 mg/kg body weight, twice a day, for eight consecutive days. On the second day from the beginning of medicine administration, nephrotoxin was intravenously administered. The effectiveness was evaluated by determining the difference in protein content of urine between the nephritic group (control group) and the medicine administered group on the 6th day (5th day after the administration of nephrotoxin) and 9th day from the beginning of medicine administration.
The percentage inhibition indicates the degree of decrease in protein content of urine of the medicine administered group as compared with the control group.

Series [1] in a line: Toxicity, median lethal dose (LD50). Particulars: in vivo.

Plasmin, sequence (P00747 581-810 limits assumed, species assumed): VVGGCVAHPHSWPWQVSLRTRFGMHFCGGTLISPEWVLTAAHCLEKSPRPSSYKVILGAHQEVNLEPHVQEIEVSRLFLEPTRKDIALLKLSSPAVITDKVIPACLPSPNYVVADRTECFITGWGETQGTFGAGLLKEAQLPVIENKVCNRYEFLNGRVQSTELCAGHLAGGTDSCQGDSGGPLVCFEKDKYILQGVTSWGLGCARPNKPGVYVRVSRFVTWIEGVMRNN
Plasmin, sequence (P00747 97-580 limits assumed, species assumed): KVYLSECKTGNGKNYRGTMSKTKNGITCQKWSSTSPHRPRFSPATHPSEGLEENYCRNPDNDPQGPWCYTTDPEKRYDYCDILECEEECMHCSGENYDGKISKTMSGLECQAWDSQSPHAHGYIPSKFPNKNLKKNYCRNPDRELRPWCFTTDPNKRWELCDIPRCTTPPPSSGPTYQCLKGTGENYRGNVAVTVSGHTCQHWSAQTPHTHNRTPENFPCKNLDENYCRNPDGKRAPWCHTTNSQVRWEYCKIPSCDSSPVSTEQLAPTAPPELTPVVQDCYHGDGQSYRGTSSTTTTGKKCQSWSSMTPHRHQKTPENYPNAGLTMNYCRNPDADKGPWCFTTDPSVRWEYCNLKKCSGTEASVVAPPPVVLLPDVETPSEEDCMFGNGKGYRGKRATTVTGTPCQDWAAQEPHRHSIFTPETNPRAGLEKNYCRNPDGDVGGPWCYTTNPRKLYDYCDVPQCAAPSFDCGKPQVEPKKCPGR

Consider `N=C(N)Nc1ccc(C(=O)Oc2ccc(C(=N)N)cc2C(=O)c2ccccc2)cc1` [Compound 69, 4-amidino-2-benzoylphenyl 4-guanidinobenzoate], for which the IC50 at Trypsin was 80 nM; at Plasmin, 2000 nM; with Kallikrein, 400 nM; at Thrombin, 200 nM; at Clr it was 2000 nM; on Cls, 400 nM. Besides, the “Inhibition of complement mediated hemolysis (%)” value was 100% in the series on complement (compound at 1 × 10^-4), 99.6% in the series on complement (compound at 1 × 10^-5), 86.5% with complement (compound at 1 × 10^-6) and 7.2% in the series on complement (compound at 1 × 10^-7). Moreover, the “Percentage inhibition (decrease in protein content of urine)” value in the series with Masugi nephritis (5th day) was 81%; in the series on Masugi nephritis (8th day), 39%. For the same compound, the “protein content of urine, Masugi nephritis” value in the series on Masugi nephritis (result in words) is reported as “distinctly decreased the protein content of urine”. Moreover, the LD50 in [1] (ip) was found to be 192 mg/kg; in series [1] (po), 1700 mg/kg.
